Laboratory results as given in US20080242869A1, “Tri(Cyclo) Substituted Amide Compounds” (priority 2004, published 2008).

Biological target: T1, GST-GK, derived from human liver GK (Homo sapiens, UniProt P35557)
T1 sequence (P35557 1-466 isoform P35557-2): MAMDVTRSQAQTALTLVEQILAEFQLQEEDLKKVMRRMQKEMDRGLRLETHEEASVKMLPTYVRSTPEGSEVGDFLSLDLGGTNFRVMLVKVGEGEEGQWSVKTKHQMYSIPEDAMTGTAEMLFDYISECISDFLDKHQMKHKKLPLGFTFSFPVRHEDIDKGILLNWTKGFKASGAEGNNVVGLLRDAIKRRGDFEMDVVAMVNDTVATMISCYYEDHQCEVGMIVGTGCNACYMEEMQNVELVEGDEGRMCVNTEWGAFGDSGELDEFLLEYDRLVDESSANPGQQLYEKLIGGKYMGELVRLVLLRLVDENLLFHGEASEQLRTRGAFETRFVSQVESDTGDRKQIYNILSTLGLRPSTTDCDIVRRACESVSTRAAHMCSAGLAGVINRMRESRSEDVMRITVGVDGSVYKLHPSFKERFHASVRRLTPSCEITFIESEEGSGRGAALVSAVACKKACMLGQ
Test: In vitro GK activity: G6P production by GST-GK coupled to NADPH generation with G6PDH
Format: biochemical
Settings: 5 mM D-Glc, 30° C., OD 340 nm over 10 min
Protocol: Using a protocol similar to that described in WO2000/58293, GK activity may be assayed by coupling the production of G6P by GST-GK to the generation of NADPH with G6PDH as the coupling enzyme.
The GK assay is performed at 30° C. in a flat bottom 96-well assay plate from Costar with a final incubation volume of 100 μL. The assay buffer contains: 25 mM Hepes buffer (pH 7.4), 12.5 mM KCl, 5 mM D-Glc, 5 mM ATP, 6.25 mM NADP, 25 mM MgCl2, 1 mM dithiothreitol, test compound or 5% DMSO, 3.0 unit/mL G6PDH, and 0.4 μL/mL GST-GK, derived from human liver GK. ATP, G6PDH, and NADP may be purchased from Roche Diagnostics. The other reagents are >98% pure and may be purchased from Kanto Chemicals. The test compounds are dissolved in DMSO, before being added to the assay buffer without ATP. This mix is preincubated in the temperature controlled chamber of a SPECTRAmax 250 microplate spectrophotometer (Molecular Devices Corporation, Sunnyvale, Calif.) for 10 min, then the reaction started by the addition of 10 μL ATP solution.
After starting the reaction, the increase in optical density (OD) at 340 nm is monitored over a 10 min incubation period as a measure of GK activity. […] The compound concentrations that produced a 50% increase in GK activity (i.e. FA1.5) are calculated. […]

maximum activation of GK: greater than 4 fold
EC50 (read-out: EC50 (concentration of test compound which produces 50% activation)): < 500 nM
Structure (SMILES): O=C1CC[C@H](C[C@@H](C(=O)Nc2ncc(F)s2)c2ccc(S(=O)(=O)C3CC3)cc2)C1 [Example 7, 2(R)-2-(4-Cyclopropanesulfonylphenyl)-N-(5-fluorothiazol-2-yl)-3-((R)-3-oxocyclopentyl)propionamide]
